We go through three compounds from patent US20190046486A1, “COMPOSITIONS AND METHODS FOR THE TREATMENT OF NEURONAL INJURY” (AXCELLA HEALTH INC., priority 2017, published 2019).

Experiment [1] deals with TNFα. The experiment can be described thus: TNFα levels in LPS-activated primary microglia cells treated with amino acid combinations. The following applies: for TNFα Measurements, Mean: mouse microglia supernatant, 12 h after LPS 100 ng/ml, LIV 2.5 mM, NAC, ALCAR, CR 1 mM each, 6 replicates. Type of experiment: cell-based, mouse. Here is the method:
(§1) Pups were decapitated, brains removed from the skulls, cortices dissected and collected in Calcium and Magnesium free Hanks Balanced Salt Solution (CMF-HBSS) on ice. Cortices were chopped with a sterile razor blade in chop solution (CMF-HBSS) and digested in 2 ml digestion solution (0.25% trypsin in CMF-HBSS) in a 15 ml sterile plastic tube for 20 minutes at 37° C. in a water bath. After removing as much as possible of the digestion solution (approximately 1 ml), the digestion was stopped by adding 3 ml stop solution (0.01% DNaseI and 0.5% trypsin inhibitor in FCS). Cortices were triturated 10-15 times with a fire-polished Pasteur pipette and centrifuged at 300 g for 5 minutes. The pellet was resuspended in 1 ml nutrition medium (10% FCS, 1% Penicillin-Streptomycin, 2 mM L-glutamine in DMEM) per pup. Cells were seeded into poly-D-lysine pre-coated T75 flasks containing 14 ml nutrition medium (one pup per flask). Medium was changed every 3 to 4 days and cells were cultured at 37° C., 95% humidity and 5% CO2 for approximately 14 days before harvesting the microglia.
(§2) After approximately 14 days of cultivation microglia cells were harvested by shaking the T75 flasks at 200 rpm at 37° C. for 2 h. After visual inspection confirming that the microglia cells had detached, the supernatants containing the microglia were transferred to 50 ml tubes (supernatant from 1 flask into 1 tube) and centrifuged at 300 g for 10 minutes. The pelleted microglia cells were resuspended in 2 ml of nutrition medium. Microglia cells were seeded into uncoated plates 1×10^5 cells/well (96 well plate) and incubated for 2 h at 37° C. Then the plates were rocked at 100 rpm for 5 minutes to detach the oligodendrocytes. The medium containing the oligodendrocytes was exchanged with fresh medium and microglia cells were incubated for 2 days at 37° C. before LPS treatment. 24 h before LPS stimulation single amino acids and combinations were administered. Next, 1 h before LPS stimulation, medium was changed to treatment medium (DMEM, 5% FBS, 2 mM L-glutamine) containing amino acids or combinations. Cells were maintained in treatment medium for the remaining culture period. One hour after changing cells to treatment medium, cells were stimulated with LPS (100 ng/ml) for 12 h in total. Cells treated with vehicle, LPS alone served as controls.
(§3) After 12 h of LPS stimulation, cell supernatants were collected and cytokines IL-6 and TNFα were measured. […]
(§4) Levels of TNFα an IL-6 were measured in supernatants of primary microglia cells collected 12 h after LPS stimulation. Cytokines were measured by an immunosorbent assay (U-PLEX Custom Mouse Cytokine, Mesoscale Discovery) according to the instructions of the manufacturer and evaluated in comparison to calibration curves provided in the kit. […]

The test system of experiment [2] is IL-6. Nature of the experiment: IL-6 levels in LPS-activated primary microglia cells treated with amino acid combinations. Conditions: for IL-6 Measurements, Mean: mouse microglia supernatant, 12 h after LPS 100 ng/ml, LIV 2.5 mM, NAC, ALCAR, CR 1 mM each, 6 replicates. Type of experiment: cell-based, mouse. Here is the method: as §1, §2, §3, §4
Where [3] appears, read: mouse microglia activated with LPS.

In the case of `CC(=O)O[C@H](CC(=O)[O-])C[N+](C)(C)C` [ALCAR, acetyl-1-carnitine], the “TNFα Measurements, Mean” value in experiment [1] is recorded as 21897 pg per ml. The “IL-6 Measurements, Mean” value in experiment [2] amounted to 59600 pg per ml.

Consider `CN(CC(=O)O)C(=N)N` [CR, creatine], for which the “TNFα Measurements, Mean” value in experiment [1] turned out to be 17884 pg per ml. The “IL-6 Measurements, Mean” value in experiment [2] was 56492 pg per ml.

With `CC(=O)N[C@@H](CS)C(=O)O` [NAC, N-acetylcysteine], in experiment [1] (setting [3]), the “TNFα protein level compared to vehicle treated with LPS stimulus” value is recorded as “reduced”. In experiment [1], the “TNFα Measurements, Mean” value came to 14814 pg per ml. Besides, in experiment [2] (setting [3]), the “IL-6 protein level compared to vehicle treated with LPS stimulus” value is listed as “reduced”. For the same compound, the “IL-6 Measurements, Mean” value in experiment [2] came out at 46749 pg per ml.
